Results taken from a melting point compilation (Tetko et al.; mined from patent text by program, amines drawn as free bases though some values may be those of a salt).

First: CCCCc1nc(C(C)(C)O)c(C(=O)OCOC(=O)C(C)(C)C)n1Cc1ccc(-c2ccccc2C(=O)O)cc1
Second: CC(=O)OCCc1ccc(NC(=O)OCc2ccccc2)cc1
The melting point of the first is lower: 139 to 144 °C for the first, 148 to 149 °C for the second.

First: COC(=O)C(=O)NCCCCCC1CCSS1 (stereo not drawn)
Second: Cc1nc(-n2ccc(OCCC3CC3)cc2=O)sc1C(=O)NCc1cccnc1
The melting point of the first is lower: 42 to 43 °C for the first, 170 to 172 °C for the second.

First: Fc1ccc(Oc2ccc(-c3c[nH]cn3)cc2)cc1
Second: CCNC(=O)OCCOc1ccc(Oc2ccc(F)cc2)cc1
The melting point of the first is higher: 165 to 168 °C for the first, 60 to 62 °C for the second.

Compared with `Cc1nc(Cl)c2c(C)c(C)n(-c3c(Br)cc(C(F)(F)F)cc3Br)c2n1`, `COc1cc(-c2ccc(C)cc2)cc2oc(=O)c(C)c(C)c12` is lower in melting point: 202 to 204 °C for the first, 123 °C for the second.

First: COc1cc(N)c(C(=O)CS(C)=O)cc1OC (stereo not drawn)
Second: COc1cc(OC)nc(-n2nc(SC)n(N)c2=O)n1
The melting point of the first is lower: 162 to 164 °C for the first, 198 °C for the second.

First: CCOC(Cc1ccc(OCC=C2c3ccccc3CCc3ccccc32)cc1)C(=O)O (stereo not drawn)
Second: CCOC(=O)C(Cc1ccccc1)NC(=O)c1cc2cc(Cl)ccc2[nH]1 (stereo not drawn)
The melting point of the first is higher: 147 to 150 °C for the first, 146 to 147 °C for the second.

First: COc1ccc(-c2cc3oc(=O)c4ccccc4c3nn2)cc1
Second: COc1ccc(CNC(=O)c2cc3c(=O)n(Cc4ccc(C(=O)O)cc4)cnc3cn2)cc1
The melting point of the first is higher: 270 °C for the first, 245 to 246 °C for the second.

First: CC(C)CC1N=C(c2ccccc2)OC1=O (stereo not drawn)
Second: CCCc1sc(-c2ccccc2)nc1O
The melting point of the first is lower: 53 to 55 °C for the first, 86 to 87 °C for the second.

First: c1ccc2c(c1)N=C(N1CCNCC1)c1sccc1N2
Second: Cn1cc(C(=O)O)c(=O)c2cc3cc(F)c(N4CCNC(c5ccccc5)C4)cc3nc21 (racemic)
The melting point of the first is lower: 203 to 206 °C for the first, 265 °C for the second.

First: CC(C)(C)c1cc(Oc2ccc(N)cc2)ccc1Oc1ccc(N)cc1
Second: CC1=NC(C)=C(c2ccc(Oc3ccc(S(C)=O)cc3)cc2)C(=O)C1Br (stereo not drawn)
The melting point of the first is lower: 129 to 130 °C for the first, 262 to 263 °C for the second.

First: Nc1ccc(C(=O)Nc2ccccc2C(c2ccc(O)cc2)c2ccc(O)cc2)cc1
Second: COc1cc(C=CC(=O)Nc2cnc3ccc(C(C)C)cc3c2-c2ccccc2Cl)cc(OC)c1OC(C)=O
The melting point of the first is higher: 158 to 161 °C for the first, 138 °C for the second.

First: O=C(O)c1cnc(C(=O)O)c2ccccc12
Second: CC(C)c1ccc2ncc(C(=O)O)c(O)c2c1
The melting point of the first is lower: 216 °C for the first, 298 °C for the second.

Compared with `CCOC(=O)c1cnn(-c2ccccc2)c1NC(=O)Nc1ccccc1`, `CC(=O)c1c(-c2ccccc2)n(C)c2ccccc12` is lower in melting point: 184 to 185 °C for the first, 76 to 77 °C for the second.

First: CCOC(=O)c1cn(Cc2ccccc2)nc1OCc1ccc(OCc2nc(-c3ccco3)oc2C)c(OCc2ccccc2)c1
Second: CC(C)Oc1cc(CCCOc2ncccc2CC(=O)O)n(Cc2ccc(Cl)cc2OC(C)C)n1
The melting point of the first is higher: 127 to 128 °C for the first, 82 to 84 °C for the second.

First: Clc1ccc2nc(N3CCN(c4c(Cl)cncc4Cl)CC3)[nH]c2c1
Second: c1cn(Cc2ccc3[nH]c(C4CC4)nc3c2)cn1
The melting point of the first is higher: 258 to 260 °C for the first, 184 °C for the second.

Compared with `CCOC(=O)C1NCCN(C(=O)OC(C)(C)C)C1=O` (stereo not drawn), `CN1CCN(C(=O)N2CCN(C(=O)OC(C)(C)C)CC2)CC1` is higher in melting point: 86 to 87 °C for the first, 130 °C for the second.

First: O=[N+]([O-])c1ccc2c(c1)OC(CO)(CO)O2
Second: CC(=O)CC1(C(=O)c2ccc([N+](=O)[O-])cc2)C=CC(Cl)=C(Cl)C1 (stereo not drawn)
The melting point of the first is lower: 111 to 113 °C for the first, 121 to 122 °C for the second.

Compared with `CCCC(=O)C1=C(O)CC(c2c(C)c(C)c3c(c2C)CC(C)(C)O3)CC1=O` (stereo not drawn), `CC(C)CC1CC(=O)c2cc(CC(=O)O)ccc21` (stereo not drawn) is higher in melting point: 83 °C for the first, 140 to 142 °C for the second.

Compared with `C=Cc1ccc(NC(=O)OC)nc1`, `C=CCOc1cc(NC(=O)OC(C)(C)C)c([N+](=O)[O-])cc1I` is lower in melting point: 146 to 148 °C for the first, 93 to 95 °C for the second.

Compared with `CCCCN(C)C(N)=C(C#N)C#N`, `CCCCOc1cc(O)c(C#N)s1` is lower in melting point: 160 to 161 °C for the first, 107 °C for the second.

Compared with `COc1ccc(N2CCOCC2)c2sc(C(=O)NC3CCN(C(=O)OC(C)(C)C)CCC3O)nc12` (stereo not drawn), `O=C(c1ccc(Br)cc1)c1ccc(N2CCOCC2)cc1` is higher in melting point: 71 to 73 °C for the first, 178 to 179 °C for the second.

First: C#CCCCCCCCCOc1cccc(C(N)=O)c1
Second: Nc1cc(C(=O)O)cc(S)c1Oc1ccccc1
The melting point of the first is lower: 111 to 112 °C for the first, 199 to 200 °C for the second.

Compared with `CC(=O)SCCC(=O)N(C)c1nnc(-c2cccnc2)s1`, `COC(=O)C(CCSC)NC(=O)c1ccc([N+](=O)[O-])cc1-c1cc(C)cc(C)c1` (stereo not drawn) is lower in melting point: 133 to 135 °C for the first, 122 to 124 °C for the second.

Compared with `CC(=O)Nc1ccc(NC(=O)c2ccc3c(c2)NC(=O)C3(C)C)cc1`, `Cc1cc2c(s1)S(=O)(=O)N(C)C(=O)C2C(=O)Nc1ccccc1` (stereo not drawn) is lower in melting point: 294 to 295 °C for the first, 184 to 185 °C for the second.

Compared with `CN(C)S(=O)(=O)c1ccccc1Cl`, `O=S1(=O)N=CN(C2CC2)c2cccc(Cl)c21` is higher in melting point: 49 to 51 °C for the first, 207 to 209 °C for the second.

Compared with `CS(=O)(=O)c1ccc(Oc2ccc3[nH]c(C4=NCC(CC(=O)NCC(F)(F)F)S4)cc3c2)cn1` (stereo not drawn), `FC(F)(F)c1ccc(-c2cc(Oc3ccc4cccnc4c3)ncn2)c(NCC2CCCCC2)n1` is lower in melting point: 234 to 235 °C for the first, 151 to 152 °C for the second.

Compared with `CCN(CC)CCNC(=O)c1cnc2cc(I)ccc2n1`, `CCCC1=C(C(=O)OCC)C(c2cccc(F)c2F)c2c[nH]nc2N1` (stereo not drawn) is higher in melting point: 60 to 62 °C for the first, 207 °C for the second.

First: N=C(N)c1ccc(N2CC(CN3CCCC(C(=O)O)C3)OC2=O)cc1 (stereo not drawn)
Second: CN1C(=O)[C@@H](NC(=O)CCC2CCCCC2)C[C@@H](c2ccccc2)c2ccccc21 (relative stereo)
The melting point of the first is higher: 198 °C for the first, 156 to 158 °C for the second.

Compared with `Cc1ccc(S(=O)(=O)Sc2cc(C)c(NC(=O)OC(C)(C)C)cc2C(C)(C)C)cc1`, `CC(C)(C)c1cc(-c2nc3ccc(O)cc3o2)ccc1O` is higher in melting point: 106 to 108 °C for the first, 220 to 222 °C for the second.

First: CSc1nn(C(=O)NC(C)c2ccc(Cl)c(Cl)c2)c(=O)n1N (stereo not drawn)
Second: Cn1nc(-c2cnc(N)nc2-c2ccco2)ccc1=O
The melting point of the first is lower: 132 °C for the first, 234 °C for the second.

First: Cn1cc(-c2cccc(Br)c2)c(=O)c(-c2ccccc2Cl)c1
Second: O=c1ccc(-c2cccc(-n3ccnc3)c2)n[nH]1
The melting point of the first is lower: 177 to 179 °C for the first, 234 to 236 °C for the second.

First: O=[N+]([O-])c1c(O)nc(N2CCSCC2)nc1O
Second: O=Cc1cn(C2CCCCC2)nc1-c1ccc([N+](=O)[O-])o1
The melting point of the first is higher: 220 to 223 °C for the first, 150 to 151 °C for the second.

First: N#Cc1c[nH]cc1-c1cccc2c1OCO2
Second: Cn1c(=O)[nH]c2cccc(I)c2c1=O
The melting point of the first is lower: 206 to 208 °C for the first, greater than 300 °C for the second.

Compared with `O=C(O)c1cc(N2C(=O)CCC2=O)cc([N+](=O)[O-])c1`, `O=C(O)C1([N+](=O)[O-])C(c2ccc([N+](=O)[O-])cc2)N=C2C=CC=CN21` (stereo not drawn) is higher in melting point: 285 to 290 °C for the first, greater than 300 °C for the second.

First: CC(C)(C)CNc1cc(Cl)nc(NCC(C)(C)C)n1
Second: COc1ccc(NC(=O)N(Cc2ccccc2)C2CCCCCC2)c(NC(=O)c2cc(C(C)(C)C)c(O)c(C(C)(C)C)c2)c1
The melting point of the first is lower: 95 to 98 °C for the first, 125 to 130 °C for the second.

First: CN(C)C1(c2ccc(F)cc2)CCC(=CC(=O)N2CCC(c3c[nH]c4ccccc34)C2)CC1 (stereo not drawn)
Second: CC1CCC2(C(=O)O)CCC3(C)C(=CCC4C5(C)CC(O)C(O)C(C)(C)C5CCC43C)C2C1C (stereo not drawn)
The melting point of the first is lower: 109 to 112 °C for the first, 242 to 244 °C for the second.

`CC(C)NCCOc1ccc(O)cc1` showed a melting point of 78 to 80 °C.
